Reference: patent publication US7531570B2, “Treatment of diseases using ICE inhibitors” (Vertex Pharmaceuticals Incorporated, priority 2004, dated 2009)

Experiments:
[1] = tested on: LPS-stimulated IL-1β release from PBMCs of FCAS patients; test: LPS-stimulated IL-1β release from PBMCs of patients with FCAS; type: cell-based, human
Source text: (§1) Inhibition by Compound 7 of LPS-Stimulated IL-1β and IL-18 Release from PBMCs of Patients with FCAS Compared with Healthy Controls.
(§2) FCAS patients from 3 families were studied along with healthy controls. The FCAS patients expressed 3 different CIAS1 gene mutations. […] (Neven B, Callebaut I, Prieur A M, Feldmann J, Bodemer C, Lepore L, Derfalvi B, Benjaponpitak S, Vesely R, Sauvain M J, Oertle S, Allen R, Morgan G, Borkhardt A, Hill C, Gardner-Medwin J. Fischer A, de Saint Basile G. Molecular basis of the spectral expression of CIAS1 mutations associated with phagocytic cell-mediated autoinflammatory disorders CINCA/NOMID, MWS, and FCU. Blood. 2004; 103(7): 2809-15).
(§3) Whole blood samples were collected from patients with FCAS and from healthy volunteer controls and cultured in vitro. The production of IL-1β was evaluated under normal, unstimulated conditions and in the presence of lipopolysaccharide at a range of concentrations from 10-10,000 ng/mL. Compound 7 was added to the cultures at concentrations of 30-30,000 nM to observe its ability to inhibit the production of IL-1β and IL-18 by cells from patients with FCAS or healthy volunteers. FIG. 1 illustrates the results of these experiments.
(§4) More specifically, in FIG. 1A, PBMCs from FCAS patients and normal controls were incubated with 10 ng/ml LPS in the presence of increasing concentrations of compound 7 (0.03-30 μM) for 24 hours. IL-1β in cell culture media was measured by ELISA and the results for each subject were normalized to the level of IL-1β release in the absence of compound 7. Results were reported in mean±SEM, for 3 FCAS patients and 5 control patients. LPS-stimulated IL-1β was inhibited by compound 7 with potency very similar to that of PBMCs from normal subjects (IC50 value˜1 μM).
FIG. 1B illustrates the release of IL-1β by PBMCs from FCAS patients or control subjects after exposure to LPS for 24 hours in the absence or presence of 10 μM compound 7. Results were reported in mean±SEM for 7 FCAS patients and 5 control patients. […]

[2] = tested on: LPS-stimulated IL-1β release from PBMCs from normal subjects; test: LPS-stimulated IL-1β release from PBMCs of healthy controls; type: cell-based; settings: Homo sapiens, PBMC, 10 ng/ml LPS, 24 hours, compound 0.03-30 μM, ELISA, FIG. 1A, read-out: IC50 for inhibition of LPS-stimulated IL-1β release
Experimental: as §1, §3, §4

[3] = tested on: LPS-stimulated IL-18 release from PBMCs of FCAS patients; test: LPS-stimulated IL-18 release from PBMCs of patients with FCAS; type: cell-based, human
Source text: as §1, §2, §3
FIG. 1C illustrates the release of IL-18 by PBMCs from FCAS patients or control subjects after 24 hrs exposure to LPS in the absence or presence of 10 μM compound 7. […]

[4] = tested on: LPS-stimulated IL-1β release from PBMCs from MWS patients; test: LPS-stimulated IL-1β release from PBMCs from MWS patients; type: cell-based, human; settings: PBMCs from 4 MWS patients, 10 ng/ml LPS, compound 0.03-10 μM, 24 hour, ELISA, FIG. 2
Experimental: Inhibition by Compound 7 of LPS-Stimulated IL-1β Release from PBMCs from 4 MWS Patients Incubated with 10 ng/ml LPS in the Presence of Increasing Concentrations of Compound 7 (0.03-10 μM) for 24 Hour.
as §3, with “with MWS” for “with FCAS and from healthy volunteer controls”, “of 30-10,000” for “of 30-30,000”, “IL-1β” for “IL-1β and IL-18”, “with MWS” for “with FCAS”, “FIG. 2” for “FIG. 1”
More specifically, in FIG. 2, IL-1β in cell culture media was measured by ELISA and the results for each subject were normalized to the level of IL-1β release in the absence of compound 7. Results were reported individually for each of the 4 MWS patients.

MWS patients = test: Open-label clinical trial: clinical response of 4 MWS patients to compound 7; type: in vivo, human
Experimental: Clinical Response of 4 MWS Patients to 900 mg Compound 7 Administered Orally Three Times Daily for 14 Days.
Four patients with MWS were enrolled into an open-label clinical trial to receive treatment with compound 7.
Compound 7 was administered orally at a dose of 900 mg 3 times daily for 14 days.
Specifically, in FIG. 3A, serum interleukin-18 (IL-18) was measured before (day −9 and day 0 (first point)), during (day 0 (second point), day 7 and day 14, (first point)) and after (day 14 (second point) and day 21) treatment with compound 7. On average, serum IL-18 levels were reduced by 55% at day 14. Data were reported in mean±SEM from 4 patients. Baseline levels of serum IL-18 were 170-370 pg /mL and were only slightly elevated relative to those typically observed in healthy control subjects.
In FIG. 3B, Serum amyloid A (SAA) and C-reactive protein (CRP) were measured before, during and after treatment with compound 7, and the amounts of SAA and CRP were reduced on average by 75% and 65%, respectively. Baseline levels of SAA were 150-650 mg/L and of CRP were 20-90 mg/L, both considerably elevated relative to healthy control subjects.
FIG. 3C illustrates that the self-reported patient total symptom scores were reduced on average by 60% during treatment. Individual symptoms (rash, fever/chills, arthralgia/myalgia, eye discomfort, fatigue) were rated daily by patients to be absent (O), minimal (1), mild (2), moderate (3) or severe (4) and the total score was calculated as the sum of individual symptom scores (range 0-20). Patients were experiencing mild-moderate symptoms at the beginning of treatment (scores 10-15), which were reduced to a minimal level (scores about 5) during treatment with compound 7.

patients with MWS = settings: cited from earlier work
[5] = 900 mg orally three times daily for 14 days, MWS patients, FIG. 3B

Compound	LPS-stimulated IL-1β release in presence of compound ([1]; 10 μM compound, LPS 24 hours, PBMCs from 7 FCAS patients vs 5 controls, FIG. 1B)	IC50 ([1]; Homo sapiens, PBMC, PBMCs from FCAS patients, 10 ng/ml LPS, 24 hours, compound 0.03-30 μM, ELISA, FIG. 1A, read-out: IC50 for inhibition of LPS-stimulated IL-1β release)	Potency of blocking IL-1β secretion, FCAS versus control subjects ([1]; LPS-stimulated cells, FIG. 1)	IC50 [2]	LPS-stimulated IL-18 release in presence of compound ([3]; 10 μM compound, LPS 24 hrs, PBMCs from 3 FCAS patients vs 3 controls, FIG. 1C)	Potency of blocking IL-18 secretion, FCAS versus control subjects ([3]; LPS-stimulated cells, FIG. 1)	Inhibition of LPS-stimulated IL-1β release, potency versus normal subjects [4]	Reduction of C-reactive protein (CRP) (average) (MWS patients; [5])	Reduction of serum amyloid A (SAA) (average) (MWS patients; [5])	Reduction of serum interleukin-18 (average) (MWS patients; 900 mg orally three times daily, at day 14, 4 MWS patients, FIG. 3A)	Reduction of self-reported patient total symptom scores (average) (MWS patients; 900 mg orally three times daily, during treatment, MWS patients, FIG. 3C)	Tolerability (MWS patients; four MWS patients, 14-day treatment period, 900 mg 3 times daily orally)	Total symptom score during treatment (MWS patients; sum of 5 symptom scores, range 0-20, scores 10-15 at beginning of treatment)	Clinical inflammatory symptoms in patients with MWS (patients with MWS; daily injection)	Serum amyloid A in patients with MWS (patients with MWS; daily injection)	Urinary excretion of amyloid in patients with MWS (patients with MWS; daily injection)	Effectiveness in treating Muckle-Wells syndrome, Familial Cold Autoinflammatory Syndrome, Hyper-IgD syndrome and systemic onset Juvenile idiopathic Arthritis (patients with MWS; human, in vivo)
CCO[C@@H]1OC(=O)C[C@@H]1NC(=O)[C@@H]1CCCN1C(=O)[C@@H](NC(=O)c1ccc(N)c(Cl)c1)C(C)(C)C [Compound 7]	inhibited	~1000 nM	equal potency	~1000 nM	inhibited	equal potency	potency similar to that of PBMCs from normal subjects	65%	75%	55%	60%	well tolerated	about 5	–	–	–	–
anakinra: recombinant human interleukin-1 receptor antagonist (rhuIL-1Ra, anakinra)	–	–	–	–	–	–	–	–	–	–	–	–	–	dramatic, rapid and sustained reduction	reduction of serum amyloid A	reduction	effective
